From patent US20260217701A1, “SELECTIVE BET INHIBITORS AND USES THEREOF” (Tay Therapeutics Limited, priority 2022, published 2026) come the findings set out here.

In general, IC50 refers to the concentration that gives 50% inhibition.

Test [1] has as its target T1, BRD4 BD1 (Homo sapiens, UniProt O60885).
T1 construct: HEK293 cells were transfected using NanoLuc-BRD4-BD1 or NanoLuc-BRD4-BD2 fusion vectors
In words: NanoBRET bromodomain assay, NanoLuc-BRD4-BD1 in HEK293 cells. Format: binding. Here is the method:
Exemplary compounds of the disclosure are active against BRD4 BD2 and selective over BRD4 BD1. BRD4 is a representative example of the BET family, as the binding sites of all BET family members are structurally similar. […] IC50s and fold selectivity's are determined as described below and are represented in Table 1.
(§1) Plates were then incubated at 37° C.+5% CO2 incubator for 2 hours.
(§2) Fold Selectivity Calculated (IC50 BD1/IC50 BD2).
(In general: BRET reads energy transfer from a luciferase to a nearby fluorophore.)

Test [2] addresses T2, BRD4 BD2 (Homo sapiens, UniProt O60885).
T2 construct: HEK293 cells were transfected using NanoLuc-BRD4-BD1 or NanoLuc-BRD4-BD2 fusion vectors
In words: NanoBRET bromodomain assay, NanoLuc-BRD4-BD2 in HEK293 cells. Format: binding. Particulars: for Fold Selectivity BRD4 BD1/BD2: IC50 BD1/IC50 BD2, qualitative if an IC50 is at the upper limit. Here is the method: as §1, §2

Where only a bound is given, the exact number is not on record here.

In test [1], `COCc1ccc(-c2cn(C)c(=O)cc2-c2cn(C)c(=O)c3[nH]c(-c4cnn(C(F)(F)F)c4)cc23)cc1` [Example 8, 4-(5-(4-(methoxymethyl)phenyl)-1-methyl-2-oxo-1,2-dihydropyridin-4-yl)-6-methyl-2-(1-(trifluoromethyl)-1H-pyrazol-4-yl)-1,6-dihydro-7H-pyrrolo[2,3-c]pyridin-7-one] returned an IC50 greater than 1000 nM. Further, in test [2], the IC50 was less than 10 nM and the “Fold Selectivity BRD4 BD1/BD2” value is “xxxx (Fold >1000)”.

`COCCOc1ccc(-c2cn(C)c(=O)cc2-c2cn(C)c(=O)c3[nH]c(-c4cnn(C(F)(F)F)c4)cc23)cc1` [Example 9, 4-(5-(4-(2-methoxyethoxy)phenyl)-1-methyl-2-oxo-1,2-dihydropyridin-4-yl)-6-methyl-2-(1-(trifluoromethyl)-1H-pyrazol-4-yl)-1,6-dihydro-7H-pyrrolo[2,3-c]pyridin-7-one] registered a concentration for half-maximal inhibition (IC50) in test [1] greater than 1000 nM. Also, in test [2], the IC50 was less than 10 nM and the “Fold Selectivity BRD4 BD1/BD2” value is on record as “xxxx (Fold >1000)”.

`Cn1cc(-c2ccccc2)c(-c2cn(C)c(=O)c3[nH]c(-c4cnn(C(F)(F)F)c4)c(Cl)c23)cc1=O` [Example 10, 3-chloro-6-methyl-4-(1-methyl-2-oxo-5-phenyl-1,2-dihydropyridin-4-yl)-2-(1-(trifluoromethyl)-1H-pyrazol-4-yl)-1,6-dihydro-7H-pyrrolo[2,3-c]pyridin-7-one]: in test [1], the IC50 is greater than 1000 nM. Further, in test [2], the IC50 is 10 to 50 nM; the “Fold Selectivity BRD4 BD1/BD2” value is “xxx (Fold >200 and ≤1000)”.

For the compound `Cc1cccc(C)c1Oc1cn(C)c(=O)cc1-c1cn(C)c(=O)c2[nH]c(-c3cnn(C(F)(F)F)c3)cc12` [Example 11, 4-(5-(2,6-dimethylphenoxy)-1-methyl-2-oxo-1,2-dihydropyridin-4-yl)-6-methyl-2-(1-(trifluoromethyl)-1H-pyrazol-4-yl)-1,6-dihydro-7H-pyrrolo[2,3-c]pyridin-7-one], the IC50 in test [1] was greater than 1000 nM. In addition, in test [2], the IC50 was less than 10 nM and the “Fold Selectivity BRD4 BD1/BD2” value is recorded as “xxxx (Fold >1000)”.

For `Cc1cccc(C)c1Oc1cn(C)c(=O)cc1-c1cn(C)c(=O)c2[nH]c(-c3cnn(C(F)F)c3)cc12` [Example 12, 2-(1-(difluoromethyl)-1H-pyrazol-4-yl)-4-(5-(2,6-dimethylphenoxy)-1-methyl-2-oxo-1,2-dihydropyridin-4-yl)-6-methyl-1,6-dihydro-7H-pyrrolo[2,3-c]pyridin-7-one], the 50% inhibitory concentration (IC50) in test [1] is greater than 1000 nM; in test [2], 10 to 50 nM. For the same compound, in test [2], the “Fold Selectivity BRD4 BD1/BD2” value is “xxx (Fold >200 and ≤1000)”.

For `Cc1cccc(C)c1Oc1cn(C)c(=O)cc1-c1cn(C)c(=O)c2[nH]c(-c3cnn(CC(F)(F)F)c3)cc12` [Example 13, 4-(5-(2,6-dimethylphenoxy)-1-methyl-2-oxo-1,2-dihydropyridin-4-yl)-6-methyl-2-(1-(2,2,2-trifluoroethyl)-1H-pyrazol-4-yl)-1,6-dihydro-7H-pyrrolo[2,3-c]pyridin-7-one], the IC50 in test [1] was greater than 1000 nM. For the same compound, in test [2], the half-inhibitory concentration (IC50) was in the range of 10 to 50 nM; the “Fold Selectivity BRD4 BD1/BD2” value is “xxx (Fold >200 and ≤1000)”.

Turning to `Cc1cccc(C)c1Oc1cn(C)c(=O)cc1-c1cn(C)c(=O)c2[nH]c(-c3cnn(CCF)c3)cc12` [Example 14, 4-(5-(2,6-dimethylphenoxy)-1-methyl-2-oxo-1,2-dihydropyridin-4-yl)-2-(1-(2-fluoroethyl)-1H-pyrazol-4-yl)-6-methyl-1,6-dihydro-7H-pyrrolo[2,3-c]pyridin-7-one], the IC50 in test [1] lay within 50 to 500 nM. In test [2], the IC50 was less than 10 nM; the “Fold Selectivity BRD4 BD1/BD2” value was “x (Fold >2 and ≤50)”.

Consider `Cc1cccc(C)c1Oc1cn(C)c(=O)cc1-c1cn(C)c(=O)c2[nH]c(-c3cn(CC(F)(F)F)nc3C)cc12` [Example 15, 4-(5-(2,6-dimethylphenoxy)-1-methyl-2-oxo-1,2-dihydropyridin-4-yl)-6-methyl-2-(3-methyl-1-(2,2,2-trifluoroethyl)-1H-pyrazol-4-yl)-1,6-dihydro-7H-pyrrolo[2,3-c]pyridin-7-one], for which the IC50 in test [1] is 500 to 1000 nM. Further, in test [2], the IC50 lay in the range of 10 to 50 nM; the “Fold Selectivity BRD4 BD1/BD2” value was “xx (Fold >50 and ≤200)”.

`Cc1cccc(C)c1Oc1cn(C)c(=O)cc1-c1cn(C)c(=O)c2[nH]c(-c3cnn(CC(F)(F)F)c3C)cc12` [Example 16, 4-(5-(2,6-dimethylphenoxy)-1-methyl-2-oxo-1,2-dihydropyridin-4-yl)-6-methyl-2-(5-methyl-1-(2,2,2-trifluoroethyl)-1H-pyrazol-4-yl)-1,6-dihydro-7H-pyrrolo[2,3-c]pyridin-7-one] had a half-maximal inhibitory concentration (IC50) in test [1] greater than 1000 nM. Further, in test [2], the IC50 is less than 10 nM; the “Fold Selectivity BRD4 BD1/BD2” value is “xx (Fold >50 and ≤200)”.

`Cn1cc(-c2cccc(COC(F)(F)F)c2)c(-c2cn(C)c(=O)c3[nH]c(-c4cnn(C(F)(F)F)c4)cc23)cc1=O` [Example 17, 6-methyl-4-(1-methyl-2-oxo-5-(3-((trifluoromethoxy)methyl)phenyl)-1,2-dihydropyridin-4-yl)-2-(1-(trifluoromethyl)-1H-pyrazol-4-yl)-1,6-dihydro-7H-pyrrolo[2,3-c]pyridin-7-one] gave an IC50 in test [1] greater than 1000 nM. For the same compound, in test [2], the IC50 was less than 10 nM and the “Fold Selectivity BRD4 BD1/BD2” value is “xxxx (Fold >1000)”.

`Cn1cc(-c2ccc(COC(F)(F)F)cc2)c(-c2cn(C)c(=O)c3[nH]c(-c4cnn(C(F)(F)F)c4)cc23)cc1=O` [Example 18, 6-methyl-4-(1-methyl-2-oxo-5-(4-((trifluoromethoxy)methyl)phenyl)-1,2-dihydropyridin-4-yl)-2-(1-(trifluoromethyl)-1H-pyrazol-4-yl)-1,6-dihydro-7H-pyrrolo[2,3-c]pyridin-7-one]: in test [1], the IC50 is greater than 1000 nM. Further, in test [2], the IC50 was less than 10 nM and the “Fold Selectivity BRD4 BD1/BD2” value was “xxxx (Fold >1000)”.

As to `CCn1cc(-c2cc(=O)n(C)cc2-c2ccccc2)c2cc(-c3cnn(C(F)(F)F)c3)[nH]c2c1=O` [Example 19, 6-ethyl-4-(1-methyl-2-oxo-5-phenyl-1,2-dihydropyridin-4-yl)-2-(1-(trifluoromethyl)-1H-pyrazol-4-yl)-1,6-dihydro-7H-pyrrolo[2,3-c]pyridin-7-one], the half-inhibitory concentration (IC50) in test [1] was greater than 1000 nM; in test [2], less than 10 nM. The “Fold Selectivity BRD4 BD1/BD2” value in test [2] was “xxxx (Fold >1000)”.

`Cc1c(-c2cnn(C(F)(F)F)c2)[nH]c2c(=O)n(C)cc(-c3cc(=O)n(C)cc3-c3ccccc3)c12` [Example 20, 3,6-dimethyl-4-(1-methyl-2-oxo-5-phenyl-1,2-dihydropyridin-4-yl)-2-(1-(trifluoromethyl)-1H-pyrazol-4-yl)-1,6-dihydro-7H-pyrrolo[2,3-c]pyridin-7-one] returned an IC50 in test [1] greater than 1000 nM. In test [2], the IC50 was in the range of 10 to 50 nM; the “Fold Selectivity BRD4 BD1/BD2” value was “xxx (Fold >200 and ≤1000)”.

As for `Cn1cc(-c2ccccc2)c(-c2cn(C)c(=O)c3[nH]c(-c4cnn(C(F)(F)F)c4)c(F)c23)cc1=O` [Example 21, 3-fluoro-6-methyl-4-(1-methyl-2-oxo-5-phenyl-1,2-dihydropyridin-4-yl)-2-(1-(trifluoromethyl)-1H-pyrazol-4-yl)-1,6-dihydro-7H-pyrrolo[2,3-c]pyridin-7-one], in test [1], the IC50 is greater than 1000 nM. In test [2], the IC50 was less than 10 nM and the “Fold Selectivity BRD4 BD1/BD2” value was “xxxx (Fold >1000)”.

For the compound `Cn1cc(-c2cc(=O)n(CCOC(F)F)cc2-c2ccccc2)c2cc(-c3cnn(C(F)(F)F)c3)[nH]c2c1=O` [Example 22, 4-(1-(2-(difluoromethoxy)ethyl)-2-oxo-5-phenyl-1,2-dihydropyridin-4-yl)-6-methyl-2-(1-(trifluoromethyl)-1H-pyrazol-4-yl)-1,6-dihydro-7H-pyrrolo[2,3-c]pyridin-7-one], in test [1], the half-maximal inhibitory concentration (IC50) is greater than 1000 nM. Moreover, in test [2], the IC50 is less than 10 nM and the “Fold Selectivity BRD4 BD1/BD2” value is “xxxx (Fold >1000)”.

With `CSCCn1cc(-c2ccccc2)c(-c2cn(C)c(=O)c3[nH]c(-c4cnn(C(F)(F)F)c4)cc23)cc1=O` [Example 23, 6-methyl-4-(1-(2-(methylthio)ethyl)-2-oxo-5-phenyl-1,2-dihydropyridin-4-yl)-2-(1-(trifluoromethyl)-1H-pyrazol-4-yl)-1,6-dihydro-7H-pyrrolo[2,3-c]pyridin-7-one], the concentration for half-maximal inhibition (IC50) is greater than 1000 nM in test [1] and less than 10 nM in test [2]. Further, the “Fold Selectivity BRD4 BD1/BD2” value in test [2] is listed as “xxxx (Fold >1000)”.

Take `CSCc1ccc(-c2cn(C)c(=O)cc2-c2cn(C)c(=O)c3[nH]c(-c4cnn(C(F)(F)F)c4)cc23)cc1` [Example 24, 6-methyl-4-(1-methyl-5-(4-((methylthio)methyl)phenyl)-2-oxo-1,2-dihydropyridin-4-yl)-2-(1-(trifluoromethyl)-1H-pyrazol-4-yl)-1,6-dihydro-7H-pyrrolo[2,3-c]pyridin-7-one]: the IC50 in test [1] was greater than 1000 nM; in test [2] it was less than 10 nM. In test [2], the “Fold Selectivity BRD4 BD1/BD2” value is “xxxx (Fold >1000)”.

In test [1], `CSCc1cccc(-c2cn(C)c(=O)cc2-c2cn(C)c(=O)c3[nH]c(-c4cnn(C(F)(F)F)c4)cc23)c1` [Example 25, 6-methyl-4-(1-methyl-5-(3-((methylthio)methyl)phenyl)-2-oxo-1,2-dihydropyridin-4-yl)-2-(1-(trifluoromethyl)-1H-pyrazol-4-yl)-1,6-dihydro-7H-pyrrolo[2,3-c]pyridin-7-one] yielded an IC50 greater than 1000 nM. For the same compound, in test [2], the IC50 was less than 10 nM and the “Fold Selectivity BRD4 BD1/BD2” value is listed as “xxxx (Fold >1000)”.

With `Cc1cc(-c2cc3c(-c4cc(=O)n(C)cc4-c4ccccc4F)cn(C)c(=O)c3[nH]2)cc(C)n1.Cl` [Example 26, 2-(2,6-dimethylpyridin-4-yl)-4-(5-(2-fluorophenyl)-1-methyl-2-oxo-1,2-dihydropyridin-4-yl)-6-methyl-1,6-dihydro-7H-pyrrolo[2,3-c]pyridin-7-one hydrogen chloride], the IC50 in test [1] was 500 to 1000 nM. In test [2], the IC50 is less than 10 nM; the “Fold Selectivity BRD4 BD1/BD2” value is “xxx (Fold >200 and ≤1000)”.
